From PubChem BioAssay AID1259411 (Chemical Carcinogenesis Research Information System (CCRIS), 2018) come the findings set out here.

Activity calls are given as the source filed them. The rule behind the calls is not given here.

For this data set, the system named is rodent carcinogenicity bioassays, tumor incidence. Briefly: CCRIS carcinogenicity studies. Particulars: Dose: 0, Dose: 0. From the text:
The CCRIS database contains chemical records with carcinogenicity, mutagenicity, tumor promotion, and tumor inhibition test results. It was developed by the National Cancer Institute (NCI). Data are derived from studies cited in primary journals, current awareness tools, NCI reports, and other sources. Test results have been reviewed by experts in carcinogenesis and mutagenesis.
CCRIS provides historical information from the years 1985 - 2011. It is no longer updated.
This is an archive assay for CCRIS carcinogenicity studies.

`c1ccccc1`: the carcinogen call (Species: Mouse, Strain/Sex: C57BL/6 (heterozygous Trp53-deficient)/Male, Route: Inhalation, 100, 300 ppm 6 hr/d, 5 d/wk for 26 wks, then no exposure for lifetime, 100, 300 ppm 6 hr/d, 5 d/wk for 26 wks, then no exposure for lifetime, Tumor Site: Type of Lesion: Blood: hematopoietic neoplasms (325, 83,100%). Lymphoid tissue: thymic lymphoma (4, 50, 25%)) was “active; positive (highest dose)”; the carcinogen call (Species: Mouse, Strain/Sex: C57BL/6 (homozygous Trp53-deficient)/Male, Route: Inhalation, 33, 100, 300 ppm 6 hr/d, 5 d/wk for 26 wks, then no exposure for lifetime, 33, 100, 300 ppm 6 hr/d, 5 d/wk for 26 wks, then no exposure for lifetime) was “inactive; negative”; the carcinogen call (Species: Mouse, Strain/Sex: C57BL/6 (wild type)/Male, Route: Inhalation, 33, 100, 300 ppm 6 hr/d, 5 d/wk for 26 wks, then no exposure for lifetime, 33, 100, 300 ppm 6 hr/d, 5 d/wk for 26 wks, then no exposure for lifetime, Tumor Site: Type of Lesion: Blood: Hematopoietic neoplasms (10, 21,16, 56%). Lymphoid tissue: Thymic lymphoma (0, 0,11, 28%)) was “active; positive (highest dose)”; the carcinogen call (Species: Mouse, Strain/Sex: C57BL/6 (wild type)/Male, Route: Inhalation, 100, 300 ppm 6 hr/d, 5 d/wk for 26 wks, then no exposure for lifetime, 100, 300 ppm 6 hr/d, 5 d/wk for 26 wks, then no exposure for lifetime, Tumor Site: Type of Lesion: Blood: hematopoietic neoplasms (8, 25,30%). Lymphoid tissue: thymic lymphoma (0,17, 0%)) was “inactive; negative”; the carcinogen call (Species: RAT, Strain/Sex: F344/FEMALE, Route: GAVAGE, 25, 50, 100 MG/KG IN CORN OIL 5 D/WK FOR 103 WK, 25, 50, 100 MG/KG IN CORN OIL 5 D/WK FOR 103 WK, Tumor Site: Type of Lesion: ORAL CAVITY: SQUAMOUS CELL PAPILLOMA OR CARCINOMA, EAR (ZYMBAL GLAND): CARCINOMA, ADENOMA OR CARCINOMA) was “active; positive”; the carcinogen call (Species: RAT, Strain/Sex: F344/MALE, Route: GAVAGE, 50, 100, 200 MG/KG IN CORN OIL 5 D/WK FOR 103 WK, 50, 100, 200 MG/KG IN CORN OIL 5 D/WK FOR 103 WK, Tumor Site: Type of Lesion: INTEGUMENTARY SYSTEM (SKIN): SQUAMOUS CELL PAPILLOMA, SQUAMOUS CELL CARCINOMA, ORAL CAVITY: SQUAMOUS CELL PAPILLOMA, SQU) is “active; positive”. Further, the carcinogen call runs as follows: (Species: RAT, Strain/Sex: SPRAGUE-DAWLEY/FEMALE, Route: GAVAGE, 50, 250 MG/KG BW IN OLIVE OIL 1/D 4-5 D/WK FOR 52 WK (STUDY DURATION: LIFETIME), 50, 250 MG/KG BW IN OLIVE OIL 1/D 4-5 D/WK FOR 52 WK (STUDY DURATION: LIFETIME), Tumor Site: Type of Lesion: [BRAIN WAS ONLY SITE EVALUATED]) “inactive; negative”; (Species: RAT, Strain/Sex: SPRAGUE-DAWLEY/FEMALE, Route: GAVAGE, 50, 250 MG/KG BW, 1/D, 4-5 D/WK FOR 52 WK, 50, 250 MG/KG BW, 1/D, 4-5 D/WK FOR 52 WK, Tumor Site: Type of Lesion: ZYMBAL GLAND: CARCINOMA, MAMMARY GLAND: CARCINOMA) “active; positive”; (Species: RAT, Strain/Sex: SPRAGUE-DAWLEY/MALE,FEMALE, Route: GAVAGE, 500 MG/KG BW, 1/WK, Tumor Site: Type of Lesion: ORAL CAVITY: SQUAMOUS CELL CARCINOMA, ZYMBAL GLAND: CARCINOMA) “active; positive”; (Species: RAT, Strain/Sex: SPRAGUE-DAWLEY/MALE, Route: GAVAGE, 50, 250 MG/KG BW IN OLIVE OIL 1/D 4-5 D/WK FOR 52 WK (STUDY DURATION: LIFETIME), 50, 250 MG/KG BW IN OLIVE OIL 1/D 4-5 D/WK FOR 52 WK (STUDY DURATION: LIFETIME), Tumor Site: Type of Lesion: [BRAIN WAS ONLY SITE EVALUATED]) “inactive; negative”; (Species: RAT, Strain/Sex: SPRAGUE-DAWLEY/MALE, Route: GAVAGE, 50, 250 MG/KG BW, 1/D, 4-5 D/WK FOR 52 WK, 50, 250 MG/KG BW, 1/D, 4-5 D/WK FOR 52 WK, Tumor Site: Type of Lesion: HEMATOPOIETIC SYSTEM (LEUKEMIA)) “active; positive”; (Species: RAT, Strain/Sex: STRAIN-CD/FEMALE, Route: INHALATION, 200 PPM 4 HR/D 5 D/WK FOR 7 WK THEN 7 HR/D FOR 12 WK THEN 300 PPM 7 HR/D 5 D/WK FOR 85 WK (STUDY DURATION: LIFESPAN), Tumor Site: Type of Lesion: MAMMARY GLAND: ADENOCARCINOMA, ORAL CAVITY: CARCINOMA, ZYMBAL GLAND: CARCINOMA, Tumor Site: Type of Lesion: MAMMARY GLAND: ADENOCARCINOMA, ORAL CAVITY: CARCINOMA, ZYMBAL GLAND: CARCINOMA) “active; positive”. Also, the carcinogen call was “active; positive” (Species: RAT, Strain/Sex: STRAIN-CD/FEMALE, Route: INHALATION, 200 PPM 4 HR/D FOR 7 WK THEN 7 HR/D FOR 12 WK THEN 300 PPM 7 HR/D 5 D/WK FOR 85 WK TO RATS ALSO EXPOSED IN UTERO (STU, Tumor Site: Type of Lesion: ZYMBAL GLAND: CARCINOMA, ORAL CAVITY: CARCINOMA, NASAL CAVITY: CARCINOMA, MAMMARY GLAND: ADENOCARCINOMA, LIVER: HEPATOMA, Tumor Site: Type of Lesion: ZYMBAL GLAND: CARCINOMA, ORAL CAVITY: CARCINOMA, NASAL CAVITY: CARCINOMA, MAMMARY GLAND: ADENOCARCINOMA, LIVER: HEPATOMA); “active; positive” (Species: RAT, Strain/Sex: STRAIN-CD/FEMALE, Route: INTRAGASTRIC, 50, 250 MG/KG IN OLIVE OIL 1/D 4-5 D/WK FOR 52 WK (STUDY DURATION: LIFESPAN), 50, 250 MG/KG IN OLIVE OIL 1/D 4-5 D/WK FOR 52 WK (STUDY DURATION: LIFESPAN), Tumor Site: Type of Lesion: ZYMBAL GLAND: CARCINOMA); “inactive; negative” (Species: RAT, Strain/Sex: STRAIN-CD/FEMALE, Route: INTRAGASTRIC, 500 MG/KG IN OLIVE OIL 1/D 4-5 D/WK FOR 104 WK (STUDY DURATION: 104 WK)); “active; positive” (Species: RAT, Strain/Sex: STRAIN-CD/FEMALE, Route: INTRAGASTRIC, 500 MG/KG IN OLIVE OIL 1/D 4-5 D/WK FOR 104 WK (STUDY DURATION: LIFESPAN), Tumor Site: Type of Lesion: ZYMBAL GLAND: CARCINOMA, LIVER: ANGIOSARCOMA, ORAL CAVITY: CARCINOMA, HEMOLYMPHORETICULAR: TUMOR, Tumor Site: Type of Lesion: ZYMBAL GLAND: CARCINOMA, LIVER: ANGIOSARCOMA, ORAL CAVITY: CARCINOMA, HEMOLYMPHORETICULAR: TUMOR); “active; positive” (Species: RAT, Strain/Sex: STRAIN-CD/MALE, Route: INHALATION, 200 PPM 4 HR/D 5 D/WK FOR 7 WK THEN 7 HR/D FOR 12 WK THEN 300 PPM 7 HR/D 5 D/WK FOR 85 WK TO RATS ALSO EXPOSED IN UTE, Tumor Site: Type of Lesion: ZYMBAL GLAND: CARCINOMA); “active; positive” (Species: RAT, Strain/Sex: STRAIN-CD/MALE, Route: INTRAGASTRIC, 50, 250 MG/KG IN OLIVE OIL 1/D 4-5 D/WK FOR 52 WK (STUDY DURATION: LIFESPAN), 50, 250 MG/KG IN OLIVE OIL 1/D 4-5 D/WK FOR 52 WK (STUDY DURATION: LIFESPAN), Tumor Site: Type of Lesion: HEMOLYMPHORETICULAR SYSTEM: TUMOR). Also, the carcinogen call by setting is: (Species: RAT, Strain/Sex: STRAIN-CD/MALE, Route: INTRAGASTRIC, 500 MG/KG IN OLIVE OIL 1/D 4-5 D/WK FOR 104 WK (STUDY DURATION: 104 WK)) “inactive; negative”; (Species: RAT, Strain/Sex: STRAIN-CD/MALE, Route: INTRAGASTRIC, 500 MG/KG IN OLIVE OIL 1/D 4-5 D/WK FOR 104 WK (STUDY DURATION: LIFESPAN), Tumor Site: Type of Lesion: ZYMBAL GLAND: CARCINOMA, ORAL CAVITY: CARCINOMA, NASAL CAVITY: CARCINOMA, SKIN: CARCINOMA, Tumor Site: Type of Lesion: ZYMBAL GLAND: CARCINOMA, ORAL CAVITY: CARCINOMA, NASAL CAVITY: CARCINOMA, SKIN: CARCINOMA) “active; positive”; (Species: RAT, Strain/Sex: WISTAR/FEMALE, Route: GAVAGE, 500 MG/KG IN OLIVE OIL 1/D FOR 4 TO 5 D/WK FOR 104 WK (STUDY DURATION: LIFETIME), Tumor Site: Type of Lesion: ZYMBAL GLAND: CARCINOMA, ORAL CAVITY: CARCINOMA, NASAL CAVITY: CARCINOMA, Tumor Site: Type of Lesion: ZYMBAL GLAND: CARCINOMA, ORAL CAVITY: CARCINOMA, NASAL CAVITY: CARCINOMA) “active; positive”; (Species: RAT, Strain/Sex: WISTAR/FEMALE, Route: INTRAGASTRIC, 500 MG/KG BW IN OLIVE OIL 1/D 4-5 D/WK FOR 104 WK (STUDY DURATION: LIFESPAN), Tumor Site: Type of Lesion: ZYMBAL GLAND: CARCINOMA, MAMMARY GLAND: ADENOCARCINOMA, HEMOLYMPHORETICULAR SYSTEM: TUMOR, Tumor Site: Type of Lesion: ZYMBAL GLAND: CARCINOMA, MAMMARY GLAND: ADENOCARCINOMA, HEMOLYMPHORETICULAR SYSTEM: TUMOR) “active; positive”; (Species: RAT, Strain/Sex: WISTAR/MALE, Route: GAVAGE, 500 MG/KG IN OLIVE OIL 1/D FOR 4 TO 5 D/WK FOR 104 WK (STUDY DURATION: LIFETIME), Tumor Site: Type of Lesion: ZYMBAL GLAND: CARCINOMA, ORAL CAVITY: CARCINOMA, NASAL CAVITY: CARCINOMA, Tumor Site: Type of Lesion: ZYMBAL GLAND: CARCINOMA, ORAL CAVITY: CARCINOMA, NASAL CAVITY: CARCINOMA) “active; positive”; (Species: RAT, Strain/Sex: WISTAR/MALE, Route: INTRAGASTRIC, 500 MG/KG BW IN OLIVE OIL 1/D 4-5 D/WK FOR 104 WK (STUDY DURATION: LIFESPAN), Tumor Site: Type of Lesion: ZYMBAL GLAND: CARCINOMA) “active; positive”.
